# Measured values from ChEMBL document CHEMBL1143083, “Potent triazolyl-proline-based inhibitors of HCV NS3 protease” (Bioorg Med Chem Lett, 2008).
# pEC50, pIC50: −log10 of the molar value.
# Legend:
# [1] = Inhibition of HCV NS3 protease; design: species or system Hepacivirus hominis
# Hepatitis C virus = experiment: Antiviral activity against HCV in human Huh7 cells after 72 hrs by cell based luciferase reporter assay; format: functional, organism-based, Hepacivirus hominis; details: Huh-7, 72 h
Compound,pIC50 [1],pEC50 (Hepatitis C virus)
C=C[C@@H]1C[C@]1(NC(=O)[C@@H]1C[C@@H](n2cc(-c3ccsc3)nn2)CN1C(=O)[C@@H](NC(=O)OC1CCCC1)C(C)(C)C)C(=O)NS(=O)(=O)C1CC1,> 8.52,5.91
C=C[C@@H]1C[C@]1(NC(=O)[C@@H]1C[C@@H](n2cc(-c3cc(Br)cc(Br)c3)nn2)CN1C(=O)[C@@H](NC(=O)OC1CCCC1)C(C)(C)C)C(=O)NS(=O)(=O)C1CC1,> 8.52,6.82
C=C[C@@H]1C[C@]1(NC(=O)[C@@H]1C[C@@H](n2cc(-c3ccc4c(c3)CCO4)nn2)CN1C(=O)[C@@H](NC(=O)OC1CCCC1)C(C)(C)C)C(=O)NS(=O)(=O)C1CC1,> 8.52,6.64
C=C[C@@H]1C[C@]1(NC(=O)[C@@H]1C[C@@H](n2nncc2-c2ccccc2)CN1C(=O)[C@@H](NC(=O)OC1CCCC1)C(C)(C)C)C(=O)O,4.85,–
C=C[C@@H]1C[C@]1(NC(=O)[C@@H]1C[C@@H](n2cc(-c3ccccc3)nn2)CN1C(=O)[C@@H](NC(=O)OC1CCCC1)C(C)(C)C)C(=O)NS(=O)(=O)C1CC1,8.57,6.37
C=C[C@@H]1C[C@]1(NC(=O)[C@@H]1C[C@@H](n2cc(-c3ccc(-c4ccccc4)cc3)nn2)CN1C(=O)[C@@H](NC(=O)OC1CCCC1)C(C)(C)C)C(=O)O,6.07,–
C=C[C@@H]1C[C@]1(NC(=O)[C@@H]1C[C@@H](n2cc(-c3ccc(Cl)cc3)nn2)CN1C(=O)[C@@H](NC(=O)OC1CCCC1)C(C)(C)C)C(=O)O,6.10,–
C=C[C@@H]1C[C@]1(NC(=O)[C@@H]1C[C@@H](n2cc(-c3cccc(Br)c3)nn2)CN1C(=O)[C@@H](NC(=O)OC1CCCC1)C(C)(C)C)C(=O)NS(=O)(=O)C1CC1,> 8.52,6.68
C=C[C@@H]1C[C@]1(NC(=O)[C@@H]1C[C@@H](n2cc(-c3cc(Br)cc(Br)c3)nn2)CN1C(=O)[C@@H](NC(=O)OC1CCCC1)C(C)(C)C)C(=O)NS(=O)(=O)C1(C)CC1,–,7.11
C=C[C@@H]1C[C@]1(NC(=O)[C@@H]1C[C@@H](n2cc(-c3cc(Br)cc(Br)c3)nn2)CN1C(=O)[C@@H](NC(=O)NC1CCCC1)C(C)(C)C)C(=O)NS(=O)(=O)C1CC1,–,6.98
C=C[C@@H]1C[C@]1(NC(=O)[C@@H]1C[C@@H](n2cc(-c3ccc4c(c3)CCO4)nn2)CN1C(=O)[C@@H](NC(=O)OC1CCCC1)C(C)(C)C)C(=O)O,6.89,–
C=C[C@@H]1C[C@]1(NC(=O)[C@@H]1C[C@@H](n2cc(-c3ccc4c(c3)OCO4)nn2)CN1C(=O)[C@@H](NC(=O)OC1CCCC1)C(C)(C)C)C(=O)NS(=O)(=O)C1CC1,> 8.52,6.72
C=C[C@@H]1C[C@]1(NC(=O)[C@@H]1C[C@@H](n2cc(-c3ccc(OC)cc3)nn2)CN1C(=O)[C@@H](NC(=O)OC1CCCC1)C(C)(C)C)C(=O)O,6.44,–
C=C[C@@H]1C[C@]1(NC(=O)[C@@H]1C[C@@H](n2cc(-c3ccc(Cl)cc3)nn2)CN1C(=O)[C@@H](NC(=O)OC1CCCC1)C(C)(C)C)C(=O)NS(=O)(=O)C1CC1,> 8.52,6.17
C=C[C@@H]1C[C@]1(NC(=O)[C@@H]1C[C@@H](n2cc(-c3cccc(Cl)c3)nn2)CN1C(=O)[C@@H](NC(=O)OC1CCCC1)C(C)(C)C)C(=O)NS(=O)(=O)C1CC1,> 8.52,6.77

# Now from value to molecule:
pIC50 [1],pEC50 (Hepatitis C virus),Compound
> 8.52,< 5.14,C=C[C@@H]1C[C@]1(NC(=O)[C@@H]1C[C@@H](n2cc(-c3ccc(S(C)(=O)=O)cc3)nn2)CN1C(=O)[C@@H](NC(=O)OC1CCCC1)C(C)(C)C)C(=O)NS(=O)(=O)C1CC1
6.15,–,C=C[C@@H]1C[C@]1(NC(=O)[C@@H]1C[C@@H](n2cc(-c3ccccc3)nn2)CN1C(=O)[C@@H](NC(=O)OC1CCCC1)C(C)(C)C)C(=O)O
6.05,–,C=C[C@@H]1C[C@]1(NC(=O)[C@@H]1C[C@@H](n2cc(-c3cccc4ccccc34)nn2)CN1C(=O)[C@@H](NC(=O)OC1CCCC1)C(C)(C)C)C(=O)O
5.37,–,C=C[C@@H]1C[C@]1(NC(=O)[C@@H]1C[C@@H](n2cc(C3CCCCC3)nn2)CN1C(=O)[C@@H](NC(=O)OC1CCCC1)C(C)(C)C)C(=O)O
> 8.52,6.66,C=C[C@@H]1C[C@]1(NC(=O)[C@@H]1C[C@@H](n2cc(-c3ccccc3Cl)nn2)CN1C(=O)[C@@H](NC(=O)OC1CCCC1)C(C)(C)C)C(=O)NS(=O)(=O)C1CC1
> 8.52,6.85,C=C[C@@H]1C[C@]1(NC(=O)[C@@H]1C[C@@H](n2cc(-c3cc(Cl)cc(Cl)c3)nn2)CN1C(=O)[C@@H](NC(=O)OC1CCCC1)C(C)(C)C)C(=O)NS(=O)(=O)C1CC1
5.43,–,C=C[C@@H]1C[C@]1(NC(=O)[C@@H]1C[C@@H](n2cc(-c3ccccn3)nn2)CN1C(=O)[C@@H](NC(=O)OC1CCCC1)C(C)(C)C)C(=O)O
4.23,–,C=C[C@@H]1C[C@]1(NC(=O)[C@@H]1C[C@@H](n2ccnn2)CN1C(=O)[C@@H](NC(=O)OC1CCCC1)C(C)(C)C)C(=O)O
> 8.52,6.57,C=C[C@@H]1C[C@]1(NC(=O)[C@@H]1C[C@@H](n2cc(-c3ccc(N(C)C)cc3)nn2)CN1C(=O)[C@@H](NC(=O)OC1CCCC1)C(C)(C)C)C(=O)NS(=O)(=O)C1CC1
7.85,6.26,C=C[C@@H]1C[C@]1(NC(=O)[C@@H]1C[C@@H](Oc2cc(-c3ccccc3)nc3cc(OC)ccc23)CN1C(=O)[C@@H](NC(=O)OC1CCCC1)C(C)(C)C)C(=O)O
